Patent US5128345A, “Carcinostatic composition comprising indolquinolines” (Mect Corporation, priority 1988, dated 1992)

Tests used:
[1] = J. Med. Chem., vol. 17, 922 (1974); among acridines with the 9-position alkylamino group replaced; cited from earlier work
[2] = system: P-388; assay: Prolongation of life span in P-388 cancer implanted mouse (in vivo); set-up: species or system CDF Mouse; conditions: Day 1 and Day 5, P-388 inoculated i.p., 10^6 cells/mouse
Method: Effect on Prolongation of Life Span in Cancer implanted Mouse and Acute Toxicity
Pharmacological effects of the compounds as used in Test Example 1 were tested in vivo using P-388 implanted mice.
Animal Used: CDF Mouse (6 mice/group),
Number of Inowlated Cells: 10^6 cells/mouse,
Day of Administration: Day 1 and Day 5,
Dosage: LD50 or 400 mg/kg/day at the maximum.
The treatment was judged as effective when the ratio of survival of the treated group to that of the control group (T/C %) was 120% or more. The survival period of the control group was generally about 10 days.

[3] = system: KB cells; assay: Test for inhibiting multiplication/growth of KB cells (in vitro); format: cell-based, Human; conditions: compound added Day 1, cells counted Day 4, 37° C., 5% CO2, 50% inhibition rate, 4320 min
Method: 1) Function for Inhibiting Multiplication of KB-1 Cell (in vitro test)
KB cells, carcinomatous cell tumors, were transferred to in vitro floatation incubator systems, and added respectively with the Compounds (1), (2) and (3). The results of cultivation added with the Compounds (1), (2) and (3) were compared with the result of the control which was not added with any compound.
Cell used: KB Cell (Originating from Human Mouth Epidermal Cancer),
Culture medium: Eagles Minimal Essential Medium supplemented with 10% Calf Serum,
Cultivation: 37° C. Carbon dioxide Gas incubator (5% CO2).
KB cells were diluted in the culture medium to adjust the KB cell density to 2 x 10^4 /ml.
Three ml of the cell suspension was inoculated in each of 60 mm plastic dishes.
Two dishes per standard dosage were used.
Test compound was added to the medium so that the final concentrations were set to 100, 30, 10, 3 and 1 μg/ml.
Cells were scraped off from the dish using trypsin, and the cell number was countered using a Corter counter.
In general accordance with the stipulations set forth by the National Cancer Institute (NCI), U.S.A., the concentration of compound necessary for exerting 50% growth inhibition (ED50) compared to the control was determined.

COc1cc(NS(C)(=O)=O)ccc1Nc1c2ccccc2nc2ccccc12 [Amsacrine, N-(4-(9-acridylamino)-3-methoxyphenyl)methanesulfonamide]
carcinostatic function [1]: highest carcinostatiac function

COc1cc(NS(C)(=O)=O)ccc1Nc1c2ccccc2nc2c1[nH]c1ccccc12 [Compound 1]
Ratio of Life Prolongation (T/C %) ([2]; 6.25 mg/kg): 300%
Ratio of Life Prolongation (T/C %) ([2]; 12.5 mg/kg): 203%
Ratio of Life Prolongation (T/C %) ([2]; 25 mg/kg): 111%
ED50: concentration of compound necessary for exerting 50% growth inhibition compared to the control (Concentration at Inhibition Rate 50%) [3]: 0.3 µg/mL

COc1cc(NS(C)(=O)=O)ccc1Nc1c2ccccc2nc2cc3ccccc3cc12 [Compound 2, N-(4-((benzo(b)acridine-12yl)amino)-3-methoxyphenyl)methanesulfonamide]
Ratio of Life Prolongation (T/C %) ([2]; 100 mg/kg): 122%
Ratio of Life Prolongation (T/C %) ([2]; 200 mg/kg): 130%
Ratio of Life Prolongation (T/C %) ([2]; 400 mg/kg): 130%
ED50: concentration of compound necessary for exerting 50% growth inhibition compared to the control (Concentration at Inhibition Rate 50%) [3]: 1.15 µg/mL

COc1cc(NS(C)(=O)=O)ccc1Nc1c2ccccc2nc2c1ccc1ccccc12 [Compound 3]
Ratio of Life Prolongation (T/C %) ([2]; 50 mg/kg): 157%
Ratio of Life Prolongation (T/C %) ([2]; 100 mg/kg): 163%
Ratio of Life Prolongation (T/C %) ([2]; 200 mg/kg): 204%
